Assay results published in ChEMBL document CHEMBL1145337, “Antitumor agents. 5. synthesis, structure-activity relationships, and biological evaluation of dimethyl-5H-pyridophenoxazin-5-ones, tetrahydro-5h-benzopyridophenoxazin-5-ones, and 5h-benzopyridophenoxazin-5-ones with potent antiproliferative activity” (J Med Chem, 2006).
Active and inactive are the calls of the source. No cut-off for these calls is given here. *1 amine or outer side, *2 acyl side, *3 side chain or, on linkers, in order; H or OH if unused. Where a SMILES comes first, the peptide text is derived from it. Bridges are numbered along the chain shown (N, C = ends). Roman numbers before positions name the chains, in order. [ ]: non-standard residue; d: D form. Actinocin(1to9) = Cc1c2oc3c(C)ccc(C(=O)[*:2])c3nc-2c(C(=O)[*:1])c(N)c1=O; NMeV = CN[C@H](C(=O)O)C(C)C; Sar = CNCC(=O)O

Columns and labels:
HeLa = test: Antiproliferative activity against human HeLa cells by MTT assay; assay type: functional, cell-based
HT-29 [1] = test: Antiproliferative activity against human HT29 cell line by MTT assay; assay type: functional, cell-based
WIL2-NS = test: Antiproliferative activity against human Wil2-NS cells by MTT assay; assay type: functional, cell-based
MT4 = test: Antiproliferative activity against human MT4 cell line by MTT assay; assay type: functional, cell-based
G-361 = test: Antiproliferative activity against human G361 cell line by MTT assay; assay type: functional, cell-based
C8166 = test: Antiproliferative activity against human C8166 cell line by MTT assay; assay type: functional, cell-based
CCRF-SB = test: Antiproliferative activity against human CCRF-SB cell line by MTT assay; assay type: functional, cell-based
ACHN = test: Antiproliferative activity against human ACHN cell line by MTT assay; assay type: functional, cell-based
KB = test: Antiproliferative activity against human KB cell line by MTT assay; assay type: functional, cell-based
MOLT-4 = test: Antiproliferative activity against human MOLT4 cell line by MTT assay; assay type: functional, cell-based
CCRF-CEM = test: Antiproliferative activity against human CCRF-CEM cell line by MTT assay; assay type: functional, cell-based
5637 = test: Antiproliferative activity against human 5637 cell line by MTT assay; assay type: functional, cell-based
HEp-2 = test: Antiproliferative activity against human Hep2 cell line by MTT assay; assay type: functional, cell-based
HT-29 [2] = test: Cell cycle arrest in HT29 cells by accumulation at G2/M phase by flow cytometry at […]; assay type: functional, Homo sapiens
[3] = target: T1, DNA topoisomerase 1 (Homo sapiens) (UniProt P11387); test: Promotion of human topoisomerase 1-mediated DNA cleavage
T1 sequence (whole entry): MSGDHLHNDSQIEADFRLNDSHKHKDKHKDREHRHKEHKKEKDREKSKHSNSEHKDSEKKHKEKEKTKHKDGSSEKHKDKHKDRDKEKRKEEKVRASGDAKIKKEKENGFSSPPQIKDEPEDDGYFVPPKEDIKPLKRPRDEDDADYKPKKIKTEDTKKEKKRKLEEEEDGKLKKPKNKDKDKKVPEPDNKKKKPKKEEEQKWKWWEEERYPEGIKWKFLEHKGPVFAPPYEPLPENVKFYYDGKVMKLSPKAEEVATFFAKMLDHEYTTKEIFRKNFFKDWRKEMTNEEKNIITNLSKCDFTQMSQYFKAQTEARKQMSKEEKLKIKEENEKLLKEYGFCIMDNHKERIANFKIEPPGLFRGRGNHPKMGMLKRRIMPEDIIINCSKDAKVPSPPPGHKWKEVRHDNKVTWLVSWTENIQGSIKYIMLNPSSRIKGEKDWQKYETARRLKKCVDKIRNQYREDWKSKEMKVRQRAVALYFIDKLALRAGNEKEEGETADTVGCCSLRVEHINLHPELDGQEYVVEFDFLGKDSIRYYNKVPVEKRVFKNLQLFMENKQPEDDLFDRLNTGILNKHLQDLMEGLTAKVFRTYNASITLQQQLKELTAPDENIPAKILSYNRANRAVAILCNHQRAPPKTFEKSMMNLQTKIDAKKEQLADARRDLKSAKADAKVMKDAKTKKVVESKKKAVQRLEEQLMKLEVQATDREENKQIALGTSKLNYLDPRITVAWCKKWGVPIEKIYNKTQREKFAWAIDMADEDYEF

HT-29 [4] = test: Cell cycle arrest in HT29 cells by accumulation at G0/G1 phase by flow cytometry at […]; assay type: functional, Homo sapiens
[5] = target: DNA topoisomerase II (Homo sapiens) (UniProt P11388+Q02880); test: Promotion of human topoisomerase 2-mediated DNA cleavage; assay type: protein assay
HT-29 [6] = test: Cell cycle arrest in HT29 cells by accumulation at S phase by flow cytometry at […]; assay type: functional, Homo sapiens
[7] = target: T1, DNA topoisomerase 1 (Homo sapiens); test: Unwinding of DNA mediated by topoisomerase 1 at 20 uM

SMILES	IC50 (HeLa) [nM]	IC50 (HT-29 [1]) [nM]	IC50 (WIL2-NS) [nM]	IC50 (MT4) [nM]	IC50 (G-361) [nM]	IC50 (C8166) [nM]	IC50 (CCRF-SB) [nM]	IC50 (ACHN) [nM]	IC50 (KB) [nM]	IC50 (MOLT-4) [nM]	IC50 (CCRF-CEM) [nM]	IC50 5637 [nM]	IC50 (HEp-2) [nM]	Activity (HT-29 [2]) [%]	Activity [3]	Activity (HT-29 [4]) [%]	Activity [5]	Activity (HT-29 [6]) [%]	Activity [7]
O=c1cc2oc3cc4c(cc3nc-2c2cccnc12)CCCC4	1100	3300	1200	1500	1500	1000	2000	1400	1000	1800	1100	1000	1700	–	–	–	–	–	–
O=c1cc2oc3c(ccc4ccccc43)nc-2c2cccnc12	200	300	60	100	50	100	20	500	100	90	50	100	60	38.49	inactive	17.63	inactive	43.88	–
O=c1cc2oc3cc4ccccc4cc3nc-2c2cccnc12	50	30	10	50	10	20	10	20	20	10	4	20	50	55.01	inactive	24.06	inactive	20.93	–
Cc1cc2nc3c4cccnc4c(=O)cc-3oc2cc1C	800	30	400	100	900	40	40	400	90	300	150	800	800	–	–	–	–	–	–
Cc1ccc2oc3cc(=O)c4ncccc4c-3nc2c1C	2600	1200	2000	300	1300	1100	1200	1800	700	2700	200	900	1300	–	–	–	–	–	–
O=c1cc2oc3c4c(ccc3nc-2c2cccnc12)CCCC4	2500	2100	2100	1500	2000	1000	1400	1900	1000	1900	1900	1100	1800	–	–	–	–	–	–
Cc1cc(C)c2oc3cc(=O)c4ncccc4c-3nc2c1	1700	1600	900	100	1500	500	300	900	1200	1200	150	600	1100	–	–	–	–	–	–
COc1cccc2c1C(=O)c1c(O)c3c(c(O)c1C2=O)C[C@@](O)(C(=O)CO)C[C@@H]3O[C@H]1C[C@H](N)[C@H](O)[C@H](C)O1 [DOXORUBICIN]	–	–	–	–	–	–	–	1	150	–	–	–	–	–	–	–	–	–	–
Cc1c2oc3c(C)ccc(C(=O)N[C@@H]4C(=O)N[C@H](C(C)C)C(=O)N5CCC[C@H]5C(=O)N(C)CC(=O)N(C)[C@@H](C(C)C)C(=O)O[C@@H]4C)c3nc-2c(C(=O)N[C@@H]2C(=O)N[C@H](C(C)C)C(=O)N3CCC[C@H]3C(=O)N(C)CC(=O)N(C)[C@@H](C(C)C)C(=O)O[C@@H]2C)c(N)c1=O [DACTINOMYCIN] (I: T[dV]P[Sar][NMeV] / II: T[dV]P[Sar][NMeV]; ester I:1-I:C, II:1-II:C; linker I:N-II:N via Actinocin(1to9))	–	–	–	–	–	–	–	–	1	–	–	–	–	–	–	–	–	–	–
O=c1cc2oc3ccccc3nc-2c2cccnc12	–	200	–	20	–	–	10	–	100	–	–	–	–	–	–	–	–	–	–
Cc1ccc(C)c2oc3cc(=O)c4ncccc4c-3nc12	900	5500	1100	80	700	8000	400	500	500	1600	700	10	400	–	–	–	–	–	–
Cc1cc(C)c2nc3c4cccnc4c(=O)cc-3oc2c1	200	200	70	40	1	200	20	1	300	500	100	5	300	–	–	–	–	–	–
O=c1cc2oc3ccc4c(c3nc-2c2cccnc12)CCCC4	1600	1000	4000	1300	1300	2000	1000	1800	1700	3200	1300	1900	1900	–	–	–	–	–	–
O=c1cc2oc3ccc4ccccc4c3nc-2c2cccnc12	1	2	5	10	20	1	10	10	10	40	1	10	40	48.66	inactive	27.93	inactive	23.42	Active
Cc1ccc2nc3c4cccnc4c(=O)cc-3oc2c1C	600	6900	1800	300	30	500	100	5	400	3000	6000	1800	400	–	–	–	–	–	–
